# Target: T1, human MOR (Homo sapiens, UniProt P35372)
# Experiment: not given
# Format: binding
# Conditions: not given
# T1 sequence (P35372 whole entry): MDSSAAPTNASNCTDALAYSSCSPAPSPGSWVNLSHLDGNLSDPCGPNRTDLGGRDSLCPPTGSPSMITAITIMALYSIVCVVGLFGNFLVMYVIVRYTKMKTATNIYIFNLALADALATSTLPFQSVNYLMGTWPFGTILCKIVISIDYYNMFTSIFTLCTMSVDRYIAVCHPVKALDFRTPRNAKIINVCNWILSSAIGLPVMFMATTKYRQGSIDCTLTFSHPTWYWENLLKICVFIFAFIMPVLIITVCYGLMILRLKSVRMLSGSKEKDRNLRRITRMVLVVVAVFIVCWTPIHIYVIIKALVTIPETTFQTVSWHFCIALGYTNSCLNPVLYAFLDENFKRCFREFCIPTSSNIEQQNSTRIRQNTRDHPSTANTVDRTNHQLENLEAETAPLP
row,SMILES,Selectivity MOR/KOR/DOR
1,"COc1ccccc1CN(C)c1ccc2c(c1)[C@@]13CCCC[C@H]1[C@@H](C2)N(CC1CCC1)CC3 [Compound 5a, (−)-17-(cyclobutylmethyl)-N-methyl-N-(2-methoxybenzyl)-morphinan-3-amine]",1/1/14
2,"COc1cccc(CNc2ccc3c(c2)[C@@]24CCCC[C@H]2[C@@H](C3)N(CC2CCC2)CC4)c1 [Compound 3b, (−)-17-(cyclobutylmethyl)-N-(3-methoxybenzyl)-morphinan-3-amine]",1/5/220
3,Nc1ccc2c(c1)[C@@]13CCCC[C@H]1[C@@H](C2)N(CC1CC1)CC3 [Compound 2c],7/1/830
4,"Oc1ccccc1CNc1ccc2c(c1)[C@@]13CCCC[C@H]1[C@@H](C2)N(CC1CC1)CC3 [Compound 4d, (−)-17-(cyclopropylmethyl)-N-(2-hydroxybenzyl)morphinan-3-amine]",10/1/150
5,"COc1ccccc1CNc1ccc2c(c1)[C@@]13CCCC[C@H]1[C@@H](C2)N(CC1CCC1)CC3 [Compound 3a, (−)-17-(cyclobutylmethyl)-N-(2-methoxybenzyl)-morphinan-3-amine]",1/1/28
6,"Oc1ccccc1CNc1ccc2c(c1)[C@@]13CCCC[C@H]1[C@@H](C2)N(CC1CCC1)CC3 [Compound 4a, (−)-17-(cyclobutylmethyl)-N-(2-hydroxybenzyl)-morphinan-3-amine]",1/1/65
7,"Clc1ccc(CNc2ccc3c(c2)[C@@]24CCCC[C@H]2[C@@H](C3)N(CC2CCC2)CC4)cc1 [Compound 3d, (−)-17-(cyclobutylmethyl)-N-(4-chlorobenzyl)-morphinan-3-amine]",1/3/59
8,COc1cccc(CN(C)c2ccc3c(c2)[C@@]24CCCC[C@H]2[C@@H](C3)N(CC2CCC2)CC4)c1 [Compound 5b],1/2/27
9,"Oc1cccc(CNc2ccc3c(c2)[C@@]24CCCC[C@H]2[C@@H](C3)N(CC2CCC2)CC4)c1 [Compound 4b, (−)-17-(cyclobutylmethyl)-N-(3-hydroxybenzyl)-morphinan-3-amine]",1/6/720
10,"COc1ccccc1CNc1ccc2c(c1)[C@@]13CCCC[C@H]1[C@@H](C2)N(CC1CC1)CC3 [Compound 3f, (−)-17-(cyclopropylmethyl)-N-(2-methoxybenzyl)-morphinan-3-amine]",1/1/130
11,"COc1cccc(CNc2ccc3c(c2)[C@@]24CCCC[C@H]2[C@@H](C3)N(CC2CC2)CC4)c1 [Compound 3g, (−)-17-(cyclopropylmethyl)-N-(3-methoxybenzyl)-morphinan-3-amine]",1/3/220

# Same assay, conditions: Table 1; ratio of Ki values
row,SMILES,Selectivity MOR/KOR/DOR
1,"COc1ccc(CNc2ccc3c(c2)[C@@]24CCCC[C@H]2[C@@H](C3)N(CC2CCC2)CC4)cc1 [Compound 3c, (−)-17-(cyclobutylmethyl)-N-(4-methoxybenzyl)-morphinan-3-amine]",1/5/300
2,"Oc1ccc(CNc2ccc3c(c2)[C@@]24CCCC[C@H]2[C@@H](C3)N(CC2CCC2)CC4)cc1 [Compound 4c, (−)-17-(cyclobutylmethyl)-N-(4-hydroxybenzyl)morphinan-3-amine]",1/7/340
3,"CN(Cc1ccc(O)cc1)c1ccc2c(c1)[C@@]13CCCC[C@H]1[C@@H](C2)N(CC1CCC1)CC3 [Compound 6c, (−)-17-(cyclobutylmethyl)-N-methyl-N-(4-hydroxybenzyl)-morphinan-3-amine]",1/1/170
4,"COc1ccc(CN(C)c2ccc3c(c2)[C@@]24CCCC[C@H]2[C@@H](C3)N(CC2CCC2)CC4)cc1 [Compound 5c, (−)-17-(cyclobutylmethyl)-N-methyl-N-(4-methyloxybenzyl)-morphinan-3-amine]",1/1/34
5,"c1cc2c(cc1CNc1ccc3c(c1)[C@@]14CCCC[C@H]1[C@@H](C3)N(CC1CCC1)CC4)OCO2 [Compound 3e, (−)-17-(cyclobutylmethyl)-N-(3,4-methylenedioxybenzyl)morphinan-3-amine]",1/3/160
6,"CN(Cc1ccc(Cl)cc1)c1ccc2c(c1)[C@@]13CCCC[C@H]1[C@@H](C2)N(CC1CCC1)CC3 [Compound 5d, (−)-17-(cyclobutylmethyl)-N-methyl-N-(4-chlorobenzyl)-morphinan-3-amine]",1/1/28
7,"c1cc2c(cc1CNc1ccc3c(c1)[C@@]14CCCC[C@H]1[C@@H](C3)N(CC1CC1)CC4)OCO2 [Compound 3i, (−)-17-(cyclopropylmethyl)-N-(3,4-methylenedihydroxybenzyl)-morphinan-3-amine]",1/3/120
8,"COc1ccc(CNc2ccc3c(c2)[C@@]24CCCC[C@H]2[C@@H](C3)N(CC2CC2)CC4)cc1 [Compound 3h, (−)-17-(cyclopropylmethyl)-N-(4-methoxybenzyl)-morphinan-3-amine]",1/2/65
9,"Oc1ccc(CNc2ccc3c(c2)[C@@]24CCCC[C@H]2[C@@H](C3)N(CC2CC2)CC4)cc1 [Compound 4f, (−)-17-(cyclopropylmethyl)-N-(4-hydroxybenzyl)-morphinan-3-amine]",1/1/44
10,"O=[N+]([O-])c1cccc(CNc2ccc3c(c2)[C@@]24CCCC[C@H]2[C@@H](C3)N(CC2CCC2)CC4)c1 [Compound 3k, (−)-3-(3′-nitrobenzyl)amino-17-cyclobutylmethylmorphinan]",1/3/350
11,"Oc1cccc(CNc2ccc3c(c2)[C@@]24CCCC[C@H]2[C@@H](C3)N(CC2CC2)CC4)c1 [Compound 4e, (−)-17-(cyclopropylmethyl)-N-(3-hydroxybenzyl)-morphinan-3-amine]",1/2/260
12,CN(Cc1cccc(O)c1)c1ccc2c(c1)[C@@]13CCCC[C@H]1[C@@H](C2)N(CC1CCC1)CC3 [Compound 6b],1/1/10
13,CN1CC[C@]23CCCC[C@H]2[C@H]1Cc1ccc(NCc2cccc(O)c2)cc13 [Compound 4g],1/24/1700

# Same assay, conditions: from binding affinities
row,SMILES,selectivity MOR to DOR
1,CN1CC[C@]23CCCC[C@H]2[C@H]1Cc1ccc(NCc2cccc(O)c2)cc13 [Compound 4g],~2000 fold

# Target: human KOR (Homo sapiens, UniProt P41145)
# Sequence (P41145 whole entry): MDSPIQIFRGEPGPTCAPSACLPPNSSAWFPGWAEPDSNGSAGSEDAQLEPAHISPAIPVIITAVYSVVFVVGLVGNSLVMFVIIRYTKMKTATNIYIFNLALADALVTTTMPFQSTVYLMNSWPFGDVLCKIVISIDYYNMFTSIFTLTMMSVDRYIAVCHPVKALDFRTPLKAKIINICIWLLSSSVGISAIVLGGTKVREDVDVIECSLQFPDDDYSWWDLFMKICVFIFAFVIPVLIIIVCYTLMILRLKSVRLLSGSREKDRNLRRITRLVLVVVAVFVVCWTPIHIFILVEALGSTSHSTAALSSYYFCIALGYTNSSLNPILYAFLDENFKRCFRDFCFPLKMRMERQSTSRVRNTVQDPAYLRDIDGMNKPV
# Experiment: not given
# Conditions: from binding affinities
row,SMILES,selectivity KOR over the DORs
1,"Oc1cccc(CNc2ccc3c(c2)C[C@@H]2[C@@H]4CCCC[C@]34CCN2CC2CC2)c1 [Compound 17, 2-(3′-Hydroxybenzyl)amino-17-cyclopropylmethylmorphinan]","> 10,000 fold"

# Target: human μ opioid receptor (Homo sapiens, UniProt P35372)
# Sequence (P35372 whole entry): as the sequence (P35372 whole entry) above
# Experiment: [35S]GTPγS binding mediated by the mu opioid receptor
# Format: biochemical
# Conditions: [35S]GTPγS binding assay, in words
row,SMILES,functional activity at MOR (agonist character)
1,"CN1CC[C@]23c4c5ccc(NCc6cccc(O)c6)c4O[C@H]2[C@@H](O)C=C[C@H]3[C@H]1C5 [Compound 12b, 3-(3′-hydroxybenzyl)amino-7,8-didehydro-4,5-epoxy-17-methyl-(5α,6α)-morphinan-6-ol]",full agonists
2,CN1CC[C@]23CCCC[C@H]2[C@H]1Cc1ccc(NCc2cccc(O)c2)cc13 [Compound 4g],full agonist

# Target: T1, human MOR
# Experiment: not given
# Conditions: Table 1; ratio of Ki values; cited from earlier work
row,SMILES,Selectivity MOR/KOR/DOR
1,CN1CC[C@]23CCCC[C@H]2[C@H]1Cc1ccc(N)cc13 [Compound 2a],1/14/190
2,"c1ccc(CNc2ccc3c(c2)[C@@]24CCCC[C@H]2[C@@H](C3)N(CC2CCC2)CC4)cc1 [Compound 8d, reference compound]",1/2/76
3,"c1ccc(CNc2ccc3c(c2)[C@@]24CCCC[C@H]2[C@@H](C3)N(CC2CC2)CC4)cc1 [Compound 8a, reference compound]",1/1/112
4,Nc1ccc2c(c1)[C@@]13CCCC[C@H]1[C@@H](C2)N(CC1CCC1)CC3 [Compound 2b],2/1/100

# — article PMC3375359 (Journal of Medicinal Chemistry, 2012)
